Measured values reported in paper PMC12920416, “Preclinical development of [^18F]TAAR1-2203 as a PET radioligand for imaging TAAR1 expression and receptor occupancy” (European Journal of Nuclear Medicine and Molecular Imaging, 2025).

Legend:
[1] = Microsomal stability, human liver microsomes; type: in vitro ADME; details: after 60 min, 37 °C
Method: (§1) Microsomal stability of [^18F]TAAR1-2203 was evaluated using mouse, rat, NHP, and human liver microsomes. Potassium phosphate buffer (340 µL, 0.5 M, pH 7.4) was combined with NADPH regenerating solution (40 µL, 10 mM). Radiotracer solution (10 µL, 150 µCi, 5.5 MBq) was added, and the mixture was preincubated at 37 °C for 5 min. Liver microsomes (20 µL) were subsequently added. Incubations were carried out at 37 °C with gentle shaking. At 30 and 60 min, 200 µL aliquots were quenched with ice-cold MeCN (200 µL), centrifuged at 10,000 g for 5 min, and analyzed using an AR-2000 radio-TLC imaging scanner (Eckert & Ziegler).

TAAR1 [2] = molecular target: T1, TAAR1 (Mus musculus, UniProt Q923Y8); experiment: In vitro autoradiography, TAAR1 knockout vs wild-type mouse tissue sections; type: binding
T1 construct: peripheral organs that express endogenous TAAR1; tissue Charles River (wild-type); F. Hoffmann-La Roche Ltd. (TAAR1 knock-out and matched controls); host or cells: mouse pancreas, kidney, liver, brain
T1 sequence (Q923Y8 whole entry): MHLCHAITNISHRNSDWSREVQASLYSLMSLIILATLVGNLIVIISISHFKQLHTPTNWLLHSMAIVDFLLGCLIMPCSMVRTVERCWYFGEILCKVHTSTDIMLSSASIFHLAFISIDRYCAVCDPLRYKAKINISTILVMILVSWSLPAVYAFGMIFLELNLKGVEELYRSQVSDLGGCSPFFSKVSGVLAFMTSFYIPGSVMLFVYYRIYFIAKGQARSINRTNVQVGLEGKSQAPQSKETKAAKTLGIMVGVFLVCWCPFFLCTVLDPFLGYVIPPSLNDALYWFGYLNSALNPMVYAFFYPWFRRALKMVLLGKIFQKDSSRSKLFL
Method: (§2) In vitro autoradiography experiments with [^18F]TAAR1-2203 were conducted on mouse and rat pancreas, kidney and brain tissue sections, respectively. Tissue Sect. (20 μm) were thawed on ice for 10 min and preincubated in assay buffer (50 mM Tris, pH 7.4) for 10 min. Subsequently, sections were incubated with [^18F]TAAR1-2203 for 40 min at ambient temperature. For blocking studies, structurally distinct TAAR1 agonists, RO5333943 or RO5425754, were added in excess to the assay buffer at a final concentration of 10 µM. After incubation, sections were washed in assay buffer for 2 min on ice and dipped briefly in water (2 × 5 s), followed by drying and exposure to a phosphor imager plate for 60 min. Imager plates were scanned on an Amersham Typhoon analyzer system, and images were analyzed using ImageQuant TL 8.1, as previously reported.

[3] = Microsomal stability, mouse liver microsomes; type: in vitro ADME; details: after 60 min, 37 °C, printed as rodent microsomes
Method: as §1

TAAR1 [4] = molecular target: T1, TAAR1; experiment: In vitro autoradiography, mouse pancreas and kidney sections; type: binding, CD1 mice; details: tracer 5–8 nM; blockade with RO5333943 or RO5425754 at 10 µM
Method: as §2

TAAR1 [5] = molecular target: T1, TAAR1; experiment: Ex vivo whole-body biodistribution, baseline and blockade; type: in vivo, CD1 mice
Method: Female CD1 mice (16 weeks old, n = 4) received [^18F]TAAR1-2203 (15 µCi, 0.56 MBq in 100 µL saline) via tail vein injection. For blocking studies, TAAR1 agonist RO5425754 (4 mg/kg) dissolved in saline containing 10% DMSO and 5% Tween® 80 was administered shortly before tracer injection through the same i.v. catheter. Mice were sacrificed at 5, 15, 30, and 60 min post-injection (n = 4 per group), and organs were harvested, weighed, and measured for radioactivity using a Packard Cobra 5002/5003 gamma counter. Data were decay-corrected and expressed as percentage of injected dose per gram of wet tissue (%ID/g).

[6] = Plasma protein binding of tracer, rat plasma; type: in vitro ADME; details: radiotracer, 10 min incubation, ultrafiltration, read-out: Free fraction in rat plasma
Method: (§3) Plasma protein binding of [^18F]TAAR1-2203 was determined in mouse, rat, NHP, and human plasma. Plasma samples (150 µL, n = 3) were preincubated at 37 °C for 5 min before addition of [^18F]TAAR1-2203 (10 µCi, 0.37 MBq). After 10 min of incubation, 300 µL of ice-cold PBS were added. Samples (300 µL) were then transferred onto Amicon® centrifugal filter units (10 kDa cut-off) and centrifuged at 2100 g for 15 min at 4 °C. Filtrates were washed with 300 µL PBS and centrifuged again. Radioactivity in the filtrate and protein-bound fractions was measured using a Packard Cobra 5002/5003 gamma counter.

[7] = Plasma protein binding of tracer, mouse plasma; type: in vitro ADME; details: radiotracer, 10 min incubation, ultrafiltration, read-out: Free fraction in mouse plasma
Method: as §3

[8] = Plasma protein binding of tracer, NHP plasma; type: in vitro ADME; details: non-human primate, radiotracer, 10 min incubation, ultrafiltration, read-out: Free fraction in NHP plasma
Method: as §3

[9] = Plasma protein binding of tracer, human plasma; type: in vitro ADME; details: radiotracer, 10 min incubation, ultrafiltration, read-out: Free fraction in human plasma
Method: as §3

[10] = baseline, i.v., initial uptake post-injection
[11] = blockade with RO5425754 4 mg/kg, 15 min post-injection, n = 4

## Cc1c([18F])cccc1[C@H]1COC(N)=N1 [[^18F]TAAR1-2203]
[1]
  Intact tracer in human liver microsomes: > 99%
TAAR1 [2]
  Tracer signal in brain tissue, TAAR1 KO vs WT mice: comparably low in both WT and KO animals
TAAR1 [2]; n = 6, p < 0.001
  Change in tracer binding in kidney of TAAR1 KO vs WT mice: −50%
  Change in tracer binding in pancreas of TAAR1 KO vs WT mice: −32%
[3]
  Intact tracer in mouse liver microsomes: > 98%
TAAR1 [4]
  Reduction of tracer binding, mouse kidney: greater than 70%
  Reduction of tracer binding, mouse pancreas: more than 50%
TAAR1 [5]; [10]
  Initial uptake in kidney: exceeding 10 % ID/g
  Initial uptake in lung: exceeding 10 % ID/g
  Initial uptake in pancreas: exceeding 10 % ID/g
TAAR1 [5]; blockade with RO5425754 4 mg/kg, 15 min post-injection
  Specific binding in the brain: no specific binding was detected
TAAR1 [5]; [11]
  Specific binding in the kidney: 52.5 ± 14.3%
  Specific binding in the liver: 30.2 ± 12.2%
  Specific binding in the pancreas: 52.2 ± 15.2%
[6]
  fraction unbound at 10 min, 2.47 MBq/mL: ~0.6
[7]
  fraction unbound at 10 min, 2.47 MBq/mL: ~0.6
[8]
  fraction unbound at 10 min, 2.47 MBq/mL: ~0.6
[9]
  fraction unbound at 10 min: ~0.6
